# Patent US20020026053A1, “Novel 3-(substituted) -2- indolinones compounds and use thereof as inhibitors of protein kinase activity” (priority 1997, published 2002)
# Target: T1, EGFR (Homo sapiens, UniProt P00533)
# T1 construct: endogenous in cells; host or cells: A431 cells (lysate, captured with SUMO1 anti-EGFR antibody)
# Assay: Biochemical EGFR Assay
# Design: concentration or dose not given beside the values
# Experimental: This assay measures the in vitro kinase activity of EGFR using ELISA.
# 1. Corning 96-well Elisa plates (Corning Catalog No. 25805-96).
# 2. SUMO1 monoclonal anti-EGFR antibody (Biochemistry Lab, SUGEN, Inc.).
# 3. PBS (Dulbecco's Phosphate-Buffered Saline, Gibco Catalog No. 450-1300EB).
# 6. A431 cell lysate (Screening Lab, SUGEN, Inc.)
# 9. Adenosine-5′-triphosphate (ATP, from Equine muscle, Sigma Cat. No. A-5394).
# Prepare a 1.0 mM solution in dH2O. This reagent should be made up immediately prior to use and kept on ice.
# Prepare a 1.0 M stock solution in dH2O.
# 11. ATP/MnCl2 phosphorylation mix
# This reagent should be prepared immediately before use and kept on ice
# 12. NUNC 96-well V bottom polypropylene plates (Applied Scientific Cat. No. AS-72092).
# 13. Ethylenediaminetetraacetic acid (EDTA)
# Prepare 200 mM working solution in dH2O. Adjust to pH 8.0 with 10 N NaOH.
# 14. Rabbit polyclonal anti-phosphotyrosine serum (Biochemistry Lab, SUGEN, Inc.)
# 15. Goat anti-rabbit IgG peroxidase conjugate (Biosource Cat. No. ALI0404)
# 16. ABTS (2,2′-azino-bis(3-ethylbenzthiazoline-6-sulfonic acid), Sigma Cat. No. A-1888).
# Mix first two ingredients in about 900 ml dH2O, adjust pH to 4.0 with phosphoric acid. Add ABTS, cover, let sit about 0.5 hr., filter. The solution should be kept in the dark at 4° C. until ready to use.
# 17. Hydrogen peroxide 30% solution (Fisher Cat. No. H325)
# Mix 15 ml ABTS solution and 2.0 μl H2O2. Prepare 5 minutes before use.
# 1. Coat Corning 96 well ELISA plates with 0.5 μg SUMO1 in 100 μl PBS per well, store overnight at 4° C.
# 2. Remove unbound SUMO1 from wells by inverting plate to remove liquid. Wash 1× with dH2O. Pat the plate on a paper towel to remove excess liquid.
# 3. Add 150 μl of Blocking Buffer to each well. Incubate for 30 min. at room temperature with shaking.
# 4. Wash plate 3× with deionized water, then once with TBST. Pat plate on a paper towel to remove excess liquid and bubbles.
# 5. Dilute lysate in PBS (7 μg lysate/100 μl PBS)
# 6. Add 100 μl of diluted lysate to each well. Shake at room temperature for 60 min.
# 7. Wash plates as described in 4, above.
# 8. Add 120 μl TBS to ELISA plate containing captured EGFR.
# 9. Dilute test compound 1:10 in TBS in 96-well polypropylene plates (ie. 10 μl compound+90 μl TBS).
# 10. Add 13.5 μl diluted test compound to ELISA plate.
# 11. Incubate for 30 minutes while shaking at room temperature.
# 13. After 5 minutes, stop reaction by adding 16.5 μl of 200 mM EDTA (pH 8.0) to each well, shaking continuously. After the EDTA has been added, shake for 1 min.
# 14. Wash 4× with deionized water, twice with TBST.
# 15. Add 100 μl anti-phosphotyrosine (1:3000 dilution in TBST) per well. Incubate 30-45 min. at room temperature, with shaking.
# 16. Wash as described in 4, above.
# 17. Add 100 μl Biosource Goat anti-rabbit IgG peroxidase conjugate (1:2000 dilution in TBST) to each well. Incubate 30 min. at room temperature, with shaking.
# 18. Wash as described in 4, above.
# 19. Add 100 μl of ABTS/H2O2 solution to each well.
# 20. Incubate 5 to 10 minutes with shaking. Remove any bubbles.
# 21. If necessary stop reaction with the addition of 100 μl 0.2 M HCl per well.
# 22. Read assay on Dynatech MR7000 ELISA reader. Test Filter: 410 nM Reference Filter: 630 nM
# T1 sequence (P00533 25-1210): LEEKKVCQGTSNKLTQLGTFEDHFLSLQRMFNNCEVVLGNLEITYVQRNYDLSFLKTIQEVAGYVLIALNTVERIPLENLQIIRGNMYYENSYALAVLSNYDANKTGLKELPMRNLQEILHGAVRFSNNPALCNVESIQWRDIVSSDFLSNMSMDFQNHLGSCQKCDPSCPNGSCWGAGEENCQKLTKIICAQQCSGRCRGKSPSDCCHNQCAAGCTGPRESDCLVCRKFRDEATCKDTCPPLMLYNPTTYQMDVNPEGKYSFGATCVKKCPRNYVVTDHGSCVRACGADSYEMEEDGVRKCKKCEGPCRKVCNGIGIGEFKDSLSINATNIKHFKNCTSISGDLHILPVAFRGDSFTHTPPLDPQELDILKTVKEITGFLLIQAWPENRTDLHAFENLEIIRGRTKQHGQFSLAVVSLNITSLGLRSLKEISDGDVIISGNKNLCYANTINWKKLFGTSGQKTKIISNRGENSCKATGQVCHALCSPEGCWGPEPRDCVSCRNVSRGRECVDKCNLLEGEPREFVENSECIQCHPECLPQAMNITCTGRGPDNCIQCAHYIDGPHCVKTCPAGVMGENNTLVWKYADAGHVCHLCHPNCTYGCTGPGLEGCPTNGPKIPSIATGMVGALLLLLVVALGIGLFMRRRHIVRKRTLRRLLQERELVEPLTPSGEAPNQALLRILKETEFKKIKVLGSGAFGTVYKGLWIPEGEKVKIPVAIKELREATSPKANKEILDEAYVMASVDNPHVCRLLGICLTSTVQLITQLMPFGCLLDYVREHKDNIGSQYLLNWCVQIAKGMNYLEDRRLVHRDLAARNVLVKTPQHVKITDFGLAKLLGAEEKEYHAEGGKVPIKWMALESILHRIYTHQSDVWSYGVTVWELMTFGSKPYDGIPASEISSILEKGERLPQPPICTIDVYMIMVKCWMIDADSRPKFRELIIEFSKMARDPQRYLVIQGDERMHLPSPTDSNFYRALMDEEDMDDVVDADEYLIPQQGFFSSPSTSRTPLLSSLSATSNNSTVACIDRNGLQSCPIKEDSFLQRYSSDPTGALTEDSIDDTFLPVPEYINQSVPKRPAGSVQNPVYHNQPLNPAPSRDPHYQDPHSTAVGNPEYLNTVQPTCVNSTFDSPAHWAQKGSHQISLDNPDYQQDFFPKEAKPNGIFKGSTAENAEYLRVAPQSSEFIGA
row,SMILES,Biochem EGFR % Inhibition (P.167)
1,Cc1c(Br)cc(Br)c2c1C(=Cc1ccc(F)cc1)C(=O)N2 [10717/H05],−2.0%
2,Cc1c(Br)cc(Br)c2c1C(=Cc1c[nH]c3ccccc13)C(=O)N2 [10717/H06],−16.8%
3,Cc1ccc(C=C2C(=O)Nc3c(Br)cc(Br)c(C)c32)s1 [10717/H07],91.2%
4,Cc1c(Br)cc(Br)c2c1C(=Cc1ccc(Br)cc1)C(=O)N2 [10717/H08],33.4%
5,Cc1c(Br)cc(Br)c2c1C(=Cc1ccc[nH]1)C(=O)N2 [10717/H09],5.4%
6,COc1cccc(O)c1C=C1C(=O)Nc2c(Br)cc(Br)c(C)c21 [10717/H10],0.5%
7,Cc1[nH]c(C=C2C(=O)Nc3c(Br)cc(Br)c(C)c32)c(Br)c1Br [10717/H11],55.6%
8,Cc1c(Br)cc(Br)c2c1C(=Cc1ccc(Br)o1)C(=O)N2 [10726/H05],2.2%
9,Cc1cn(C)cc1C=C1C(=O)Nc2c(Br)cc(Br)c(C)c21 [10726/H06],−9.2%
10,Cc1c(Br)cc(Br)c2c1C(=Cc1cc(O)c3c(c1O)CCCC3)C(=O)N2 [10726/H07],31.2%
11,Cc1c(Br)cc(Br)c2c1C(=C1C(=O)Nc3ccc(F)cc31)C(=O)N2 [10726/H08],−16.6%
12,Cc1c(Br)cc(Br)c2c1C(=C1C(=O)Nc3ccccc31)C(=O)N2 [10726/H09],−0.1%
13,CCc1ccc(C=C2C(=O)Nc3c(Br)cc(Br)c(C)c32)s1 [10726/H10],12.0%
14,COc1ccc(C=C2C(=O)Nc3c(Br)cc(Br)c(C)c32)cc1 [10726/H11],1.5%
15,CCN(CC)c1ccc(C=C2C(=O)Nc3c(Br)cc(Br)c(C)c32)cc1 [10727/H02],−37.1%
16,CCc1cc(CC)c(C=C2C(=O)Nc3c(Br)cc(Br)c(C)c32)[nH]1 [10727/H03],4.5%
17,Cc1c(Br)cc(Br)c2c1C(=Cc1cc(Cl)cc(Br)c1O)C(=O)N2 [10727/H04],19.2%
18,Cc1c(Br)cc(Br)c2c1C(=Cc1ccccc1Sc1ccc(Cl)cc1)C(=O)N2 [10727/H05],0.4%
19,Cc1c(Br)cc(Br)c2c1C(=Cc1cc3c(cc1Cl)OCO3)C(=O)N2 [10727/H06],−35.8%
20,Cc1c(Br)cc(Br)c2c1C(=Cc1coc3ccccc3c1=O)C(=O)N2 [10727/H07],−17.3%

row,SMILES,Biochem EGFR % Inhibition (P.167)
1,Cc1c(Br)cc(Br)c2c1C(=Cc1cccc(C#N)c1)C(=O)N2 [10727/H08],−8.0%
2,Cc1c(Br)cc(Br)c2c1C(=Cc1ccc(C#N)cc1)C(=O)N2 [10727/H09],−6.1%
3,Cc1c(Br)cc(Br)c2c1C(=Cc1cc(O)ccc1O)C(=O)N2 [10727/H10],83.6%
4,COc1cccc(C=C2C(=O)Nc3c(Br)cc(Br)c(C)c32)c1OC [10727/H11],−3.5%
5,COc1ccc(OC)c(C=C2C(=O)Nc3c(Br)cc(Br)c(C)c32)c1 [10728/H02],−36.6%
6,COc1cccc(OC)c1C=C1C(=O)Nc2c(Br)cc(Br)c(C)c21 [10728/H03],3.5%
7,COc1cc(C=C2C(=O)Nc3c(Br)cc(Br)c(C)c32)cc(OC)c1 [10728/H04],−0.6%
8,Cc1c(Br)cc(Br)c2c1C(=Cc1ccc3c(c1)Cc1ccccc1-3)C(=O)N2 [10728/H06],−22.8%
9,Cc1c(Br)cc(Br)c2c1C(=Cc1cccc(C(F)(F)F)c1F)C(=O)N2 [10728/H07],−25.8%
10,Cc1c(Br)cc(Br)c2c1C(=Cc1c(F)cccc1C(F)(F)F)C(=O)N2 [10728/H09],−6.1%
11,Cc1c(Br)cc(Br)c2c1C(=Cc1ccccc1OCC(=O)O)C(=O)N2 [10728/H10],−22.4%
12,COc1cc(C=C2C(=O)Nc3c(Br)cc(Br)c(C)c32)cc2c1OCO2 [10728/H11],−25.6%
13,COc1ccc2ccccc2c1C=C1C(=O)Nc2c(Br)cc(Br)c(C)c21 [10729/H02],−10.7%
14,COc1ccc(C=C2C(=O)Nc3c(Br)cc(Br)c(C)c32)c2ccccc12 [10729/H03],30.3%
15,CSc1ccc(C=C2C(=O)Nc3c(Br)cc(Br)c(C)c32)cc1 [10729/H04],−4.4%
16,Cc1ccsc1C=C1C(=O)Nc2c(Br)cc(Br)c(C)c21 [10729/H05],−4.4%
17,Cc1c(Br)cc(Br)c2c1C(=Cc1cccc(Oc3ccccc3)c1)C(=O)N2 [10729/H06],−10.3%
18,Cc1c(Br)cc(Br)c2c1C(=Cc1ccccn1)C(=O)N2 [10729/H07],30.0%
19,Cc1c(Br)cc(Br)c2c1C(=Cc1cccnc1)C(=O)N2 [10729/H08],8.7%
20,Cc1c(Br)cc(Br)c2c1C(=Cc1ccncc1)C(=O)N2 [10729/H09],8.0%

row,SMILES,Biochem EGFR % Inhibition (P.167)
1,Cc1c(Br)cc(Br)c2c1C(=Cc1ccc(N3CCCC3)cc1)C(=O)N2 [10729/H10],2.1%
2,Cc1c(Br)cc(Br)c2c1C(=CC1C=CCCC1)C(=O)N2 (centres unmarked) [10729/H11],0.8%
3,COc1ccc(C=C2C(=O)Nc3c(Br)cc(Br)c(C)c32)c(OC)c1OC [10730/H02],12.6%
4,COc1cc(OC)c(OC)cc1C=C1C(=O)Nc2c(Br)cc(Br)c(C)c21 [10730/H03],−3.4%
5,COc1cc(C=C2C(=O)Nc3c(Br)cc(Br)c(C)c32)cc(OC)c1OC [10730/H04],−29.5%
6,CC(=O)n1cc(C=C2C(=O)Nc3c(Br)cc(Br)c(C)c32)c2ccccc21 [10730/H05],−20.1%
7,Cc1c(Br)cc(Br)c2c1C(=Cc1ccc(-c3ccccc3Cl)o1)C(=O)N2 [10730/H07],−3.2%
8,Cc1c(Br)cc(Br)c2c1C(=Cc1cc3ccccc3nc1Cl)C(=O)N2 [10730/H08],−15.8%
9,COC1CC(C=C2C(=O)Nc3c(Br)cc(Br)c(C)c32)C(OC)O1 (centres unmarked) [10730/H10],1.7%
10,Cc1cc(C=C2C(=O)Nc3c(Br)cc(Br)c(C)c32)oc1C [10730/H11],26.4%
11,CCn1c2ccccc2c2cc(C=C3C(=O)Nc4c(Br)cc(Br)c(C)c43)ccc21 [10731/H02],−9.5%
12,Cc1cc2occ(C=C3C(=O)Nc4c(Br)cc(Br)c(C)c43)c(=O)c2cc1C [10731/H03],−1.5%
13,C=C(C)C1CC=C(C=C2C(=O)Nc3c(Br)cc(Br)c(C)c32)CC1 (centres unmarked) [10731/H04],−1.7%
14,Cc1c(Br)cc(Br)c2c1C(=Cc1coc3ccc(C(C)C)cc3c1=O)C(=O)N2 [10731/H05],−3.6%
15,Cc1ccc2occ(C=C3C(=O)Nc4c(Br)cc(Br)c(C)c43)c(=O)c2c1 [10731/H06],−7.8%
16,Cc1c(Br)cc(Br)c2c1C(=Cc1coc3ccc([N+](=O)[O-])cc3c1=O)C(=O)N2 [10731/H07],−1.7%
17,Cc1c(Br)cc(Br)c2c1C(=Cc1c[nH]c(=O)[nH]c1=O)C(=O)N2 [10731/H08],−0.5%
18,COc1ccc2[nH]cc(C=C3C(=O)Nc4c(Br)cc(Br)c(C)c43)c2c1 [10731/H09],−2.7%
19,Cc1c(Br)cc(Br)c2c1C(=C1C(=O)N(C)c3ccccc31)C(=O)N2 [10731/H10],3.5%
